This passage reports Ki results from US5891909A, “Amidinohydrazones as protease inhibitors” (3-Dimensional Pharmaceuticals, Inc., priority 1997, dated 1999).

Structures can show the parent of a compound that is named as a salt.

This test addresses T1, human α-thrombin (Homo sapiens, UniProt P00734).
T1 construct: Human α-thrombin, human factor Xa and human plasmin were obtained from Enzyme Research Laboratories; purchased Enzyme Research Laboratories (South Bend, Ind.)
Nature of the test: Thrombin inhibition, Ki determination (hydrolysis of N-succinyl-Ala-Ala-Pro-Arg-p-nitroanilide). The format is biochemical. The note with it: Table 1; pH 7.5, 37° C.; read-out: Thrombin Ki. The text has this: All buffer salts were obtained from Sigma Chemical Company (St. Louis, Mo.), and were of the highest purity available. The enzyme substrates, N-benzoyl-Phe-Val-Arg-p-nitroanilide (Sigma B7632), N-benzoyl-Ile-Glu-Gly-Arg-p-nitroanilide hydrochloride (Sigma B2291), N-p-Tosyl-Gly-Pro-Lys-p-nitroanilide (Sigma T6140), N-succinyl-Ala-Ala-Pro-Phe-p-nitroanilide (Sigma S7388) and N-CBZ-Val-Gly-Arg-p-nitroanilide (Sigma C7271) were obtained from Sigma.
Human α-thrombin, human factor Xa and human plasmin were obtained from Enzyme Research Laboratories (South Bend, Ind.). Bovine α-chymotrypsin (Sigma C4129), bovine trypsin (Sigma T8642) and human kidney cell urokinase (Sigma U5004) were obtained from Sigma. Human leukocyte elastase was obtained from Elastin Products (Pacific, Mo.).
All assays are based on the ability of the test compound to inhibit the enzyme catalyzed hydrolysis of a peptide p-nitroanilide substrate. […] The final concentrations for each of the substrates is listed below. In general, substrate concentrations are lower than the experimentally determined value for Km. Test compounds are prepared as a 1.0 mg/ml solution in DMSO. Dilutions are prepared in DMSO yielding 8 final concentrations encompassing a 200 fold concentration range. Enzyme solutions are prepared at the concentrations listed below in assay buffer.
Data corresponding to less than 10% of the total substrate hydrolysis were used in the calculations. The ratio of the velocity (rate of change in absorbance as a function of time) for a sample containing no test compound is divided by the velocity of a sample containing test compound, and is plotted as a function of test compound concentration. The data are fit to a linear regression, and the value of the slope of the line calculated. The inverse of the slope is the experimentally determined Ki value.
Thrombin activity was assessed as the ability to hydrolyze the substrate N-succinyl-Ala-Ala-Pro-Arg-p-nitroanilide.
For `COc1ccc(C)cc1S(=O)(=O)Oc1cc(C)cc(OCCC=NNC(=N)N)c1` [Example 14, 2-[2-[3-(2-Methoxy-5-methylphenylsulfonyloxy)-5-methylphenoxy]ethyl-1-methylene]hydrazinecarboximidamide nitrate], the inhibition constant Ki was 47.5 nM.
With `Cc1cc(OCCC=NNC(=N)N)cc(OS(=O)(=O)c2cc(F)ccc2C)c1` [Example 24, 2-[2-[3-(5-Fluoro-2-methylphenylsulfonyloxy)-5-methylphenoxy]ethyl-1-methylene]hydrazinecarboximidamide nitrate] the figure was 13.5 nM.
`COc1ccccc1S(=O)(=O)Oc1cc(C)cc(OCCCC=NNC(=N)N)c1` [Example 23, 2-[3-[3-(2-Methoxyphenylsulfonyloxy)-5-methylphenoxy]propyl-1-methylene]hydrazinecarboximidamide nitrate]: the Ki came out at 1670 nM.
With `Cc1cc(OCCC=NNC(=N)N)cc(OS(=O)(=O)c2cccc(Cl)c2Cl)c1` [Example 6, 2-[2-[3-(2,3-Dichlorophenylsulfonyloxy)-5-methylphenoxy]ethyl-1-methylene]hydrazinecarboximidamide nitrate] the figure was 13.6 nM.
With `COc1ccc(OC)c(S(=O)(=O)Oc2cc(C)cc(OCCC=NNC(=N)N)c2)c1` [Example 16, 2-[2-[3-(2,5-Dimethoxyphenylsulfonyloxy)-5-methylphenoxy]ethyl-1-methylene]hydrazinecarboximidamide nitrate] the figure was 21.3 nM; with `Cc1cc(OCCC=NNC(=N)N)cc(OS(=O)(=O)c2ccccc2OC(F)(F)F)c1` [Example 10, 2-[2-[5-Methyl-3-(2-trifluoromethoxyphenylsulfonyloxy)phenoxy]ethyl-1-methylene]hydrazinecarboximidamide nitrate], 17.2 nM.
For `COc1ccc(Cl)cc1S(=O)(=O)Oc1cc(C)cc(OCCC=NNC(=N)N)c1` [Example 18, 2-[2-[3-(5-Chloro-2-methoxyphenylsulfonyloxy)-5-methylphenoxy]ethyl-1-methylene]hydrazinecarboximidamide hydrochloride], the Ki amounted to 4.7 nM.
Then `Cc1cc(OCCC=NNC(=N)N)cc(OS(=O)(=O)c2cccc(C#N)c2)c1` [Example 36, 2-[2-[3-(3-Cyanophenylsulfonyloxy)-5-methylphenoxy]ethyl-1-methylene]hydrazinecarboximidamide nitrate], with 68 nM; and `COc1ccc(Cl)cc1S(=O)(=O)Oc1cc(C)cc(OCCC=NNC(=N)NN)c1` [Example 27, 2-Amino-[2-[2-[3-(5-chloro-2-methoxyphenylsulfonyloxy)-5-methylphenoxy]ethyl-1-methylene]hydrazine]carboximidamine acetate], with 298 nM; and `COc1ccccc1S(=O)(=O)Oc1cc(C)cc(OCCC=NNC(=N)N)c1` [Example 8, 2-[2-[3-(2-Methoxyphenylsulfonyloxy)-5-methylphenoxy]ethyl-1-methylene]hydrazinecarboximidamide acetate], with 6.4 nM.
With `Cc1cc(OCC2(C=NNC(=N)N)CC2)cc(OS(=O)(=O)c2ccccc2C#N)c1` [Example 39, 2-[[1-[3-(2-Cyanophenylsulfonyloxy)-5-methylphenoxy]-methyl]cyclopropyl-1-methylene]hydrazinecarboximidamide acetate] the figure was 52 nM; with `Cc1cc(OCCC=NNC(=N)N)cc(OS(=O)(=O)c2ccccc2C#N)c1` [Example 13, 2-[2-[3-(2-Cyanophenylsulfonyloxy)-5-methylphenoxy]ethyl-1-methylene]hydrazinecarboximidamide hydrochloride], 14 nM; with `Cc1cc(OCCC=NNC(=N)N)cc(OS(=O)(=O)c2cc([N+](=O)[O-])ccc2C)c1` [Example 22, 2-[2-[5-Methyl-3-(2-methyl-5-nitrophenylsulfonyloxy)phenoxy]ethyl-1-methylene]hydrazinecarboximidamide nitrate], 63.6 nM.
For the compound `COc1ccc(Br)cc1S(=O)(=O)Oc1cc(C)cc(OCCC=NNC(=N)N)c1` [Example 9, 2-[2-[3-(5-Bromo-2-methoxyphenylsulfonyloxy)-5-methylphenoxy]ethyl-1-methylene]hydrazinecarboximidamide nitrate], the Ki came out at 9.4 nM.
Then `Cc1cc(OCCC=NNC(=N)N)cc(OS(=O)(=O)c2cc(Cl)ccc2Cl)c1` [Example 7, 2-[2-[3-(2,5-Dichlorophenylsulfonyloxy)-5-methylphenoxy]ethyl-1-methylene]hydrazinecarboximidamide nitrate], with 14.9 nM; and `COc1cc(CCCC=NNC(=N)N)cc(OS(=O)(=O)c2ccccc2Cl)c1` [Example 4, 2-[3-[3-(2-chlorophenylsulfonyloxy)-5-methoxyphenyl]propyl-1-methylene]hydrazinecarboximidamide hydrochloride], with 1270 nM; and `Cc1cc(OCCC=NNC(=N)N)cc(OS(=O)(=O)c2c(C)nn(C)c2Cl)c1` [Example 20, 2-[2-[3-(5-chloro-1,3-dimethylpyrazole-4-sulfonyloxy)-5-methylphenoxy]ethyl-1-methylene]hydrazinecarboximidamide acetate], with 76.2 nM.
For the compound `Cc1cc(OCCC=NNC(=N)N)cc(OS(=O)(=O)c2cc(C)ccc2C#N)c1` [Example 30, 2-[2-[3-(2-Cyano-5-methylphenylsulfonyloxy)-5-methylphenoxy]ethyl-1-methylene]hydrazinecarboximidamide nitrate], the Ki is 33.4 nM.
In the case of `Cc1cc(OCCC=NNC(=N)N)cc(OS(=O)(=O)c2cccc3ccccc23)c1` [Example 25, 2-[2-[5-Methyl-3-(1-naphthalenylsulfonyloxy)phenoxy]ethyl-1-methylene]hydrazinecarboximidamide nitrate], the Ki amounted to 63.2 nM.
With `Cc1cc(OCCC=NNC(=N)N)cc(OS(=O)(=O)c2cccc(F)c2)c1` [Example 35, 2-[2-[3-(3-Fluorophenylsulfonyloxy)-5-methylphenoxy]ethyl-1-methylene]hydrazinecarboximidamide nitrate] the figure was 31 nM.
Then `Cc1cc(OCCC=NNC(=N)N)cc(OS(=O)(=O)c2cccc(C)c2)c1` [Example 12, 2-[2-[5-Methyl-3-(3-methylphenylsulfonyloxy)phenoxy]ethyl-1-methylene]hydrazinecarboximidamide nitrate], with 8.9 nM.
With `Cc1cc(OCCC=NNC(=N)N)cc(OS(=O)(=O)c2ccccc2C(F)(F)F)c1` [Example 2, 2-[2-[5-Methyl-3-(2-trifluoromethylphenylsulfonyloxy)phenoxy]ethyl-1-methylene]hydrazinecarboximidamide nitrate] the figure was 8.4 nM; with `Cc1cc(OCCC=NNC(=N)N)cc(OCc2ccccc2C(F)(F)F)c1` [Example 3, 2-[2-[5-methyl-3-(2-trifluoromethylbenzyloxy)phenoxy]ethyl-1-methylene]hydrazinecarboximidamide nitrate], 465 nM; with `CCOC(=O)CCCCCN(c1cc(C)cc(OCCC=NNC(=N)N)c1)S(=O)(=O)c1ccccc1C(F)(F)F` [Example 5, 2-[2-[(5-methyl-3-(N-(5-ethoxycarbonylpentyl)-N-(2-trifluoromethylphenylsulfonyl)amino)phenoxy]ethyl-1-methylene]hydrazinecarboximidamide nitrate], 26.4 nM.
For `COc1ccc(Cl)cc1S(=O)(=O)Oc1cc(C)cc(OCCC=NN(N)C(=N)N)c1` [Example 28, 1-Amino-2-[2-[3-(5-chloro-2-methoxyphenylsulfonyloxy)-5-methylphenoxy]ethyl-1-methylene]hydrazinecarboximidamine acetate], the inhibition constant Ki amounted to 186 nM.
As for `Cc1cc(OCCC=NNC(=N)N)cc(OS(=O)(=O)c2cccnc2)c1` [Example 34, 2-[2-[5-methyl-3-(3-pyridinylsulfonyloxy)phenoxy]ethyl-1-methylene]hydrazinecarboximidamide diacetate], the Ki came to 56 nM.
As to `Cc1cc(OCCC=NNC(=N)N)cc(OS(=O)(=O)c2cc(C(F)(F)F)ccc2Cl)c1` [Example 26, 2-[2-[3-(2-Chloro-5-trifluoromethylphenylsulfonyloxy)-5-methylphenoxy]ethyl-1-methylene]hydrazinecarboximidamide nitrate], the Ki worked out at 1540 nM.
`Cc1cc(OCCC=NNC(=N)N)cc(OS(=O)(=O)c2cc(C)ccc2C)c1` [Example 17, 2-[2-[3-(2,5-Dimethylphenylsulfonyloxy)-5-methylphenoxy]ethyl-1-methylene]hydrazinecarboximidamide nitrate]: the inhibitory constant (Ki) worked out at 6.2 nM.
As for `Cc1cc(OCCC=NNC(=N)N)cc(OS(=O)(=O)c2cccc3nsnc23)c1` [Example 11, 2-[2-[3-(Benzo-2,1,3-thiadiazole-4-sulfonyloxy)-5-methylphenoxy]ethyl-1-methylene]hydrazinecarboximidamide nitrate], the Ki was 29.6 nM.
